Laboratory results from patent US11046945B2, “Labeled glutaminase proteins, isolated glutaminase protein mutants, methods of use, and kit” (CORNELL UNIVERSITY, priority 2013, dated 2021).
Numbering of substitutions follows the chain as printed.

What was measured:
[1] = biological target: T1, 488-K316E-D391K-R459E-GAC (Mus musculus, UniProt D3Z7P3, D391K/K316E/R459E); test: Real-time binding read-out by fluorescence quenching, monomer mutant; settings: 20 nM 488-labeled protein, 968 titration
T1 construct: plasmid (residues 72-603 for GAC, 72-674 for KGA); His-tag with thrombin cleavage site (N, cleaved yes); made in house; host or cells: pET23a vector
T1 sequence (D3Z7P3 72-603 isoform D3Z7P3-2 K316E/D391K/R459E): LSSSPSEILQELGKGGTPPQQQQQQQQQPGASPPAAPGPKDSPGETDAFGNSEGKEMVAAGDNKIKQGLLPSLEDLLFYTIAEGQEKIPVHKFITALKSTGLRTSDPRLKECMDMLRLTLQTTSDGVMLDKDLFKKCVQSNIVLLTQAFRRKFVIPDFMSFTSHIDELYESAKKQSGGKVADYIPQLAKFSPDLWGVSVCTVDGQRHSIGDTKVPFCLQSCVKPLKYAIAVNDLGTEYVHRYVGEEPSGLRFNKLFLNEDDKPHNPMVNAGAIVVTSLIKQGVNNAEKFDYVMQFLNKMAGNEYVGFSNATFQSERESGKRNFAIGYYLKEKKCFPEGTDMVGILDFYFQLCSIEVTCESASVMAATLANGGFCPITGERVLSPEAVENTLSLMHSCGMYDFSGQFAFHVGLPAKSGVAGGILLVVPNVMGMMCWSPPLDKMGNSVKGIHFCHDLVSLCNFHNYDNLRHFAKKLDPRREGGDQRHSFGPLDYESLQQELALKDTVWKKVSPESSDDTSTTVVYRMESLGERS
Description: (§1) Real-time fluorescence monitoring of 488-GAC fluorescence and NADH fluorescence was performed on a Varian Carry Eclipse Fluorometer, whereas small molecule inhibition and binding titrations were performed in a 96-well format using Grenier non-binding 96-well plates in a Tecan Saphire absorbance and fluorescence plate reader. Samples for monitoring real time binding of 968 to 488-GAC were prepared by adding 10 μL […] (490 nm excitation/520 nm emission). Similarly, this method was replicated for monitoring real time binding of 968 to KGA and mutant forms of GAC, namely 488-D391K-GAC and 488-K316E-D391K-R459E-GAC. Titrations of 968 with mutant forms of GAC were done in triplicate and quantified by the following equation
(§2) [formula] where F is the normalized fluorescence at given drug concentration (i.e., F/F0), and Fsat is the normalized fluorescence at saturating concentrations of drug, as shown in FIG. 7A. […] 10 nM WT GAC was added and allowed to equilibrate 2 minutes before beginning to monitor fluorescence of 488-GAC (490 nm excitation, 520 nm emission) and NADH fluorescence (340 nm excitation, 490 nm emission). […] The activity of GAC was indirectly measured by the NADH produced by the added glutamate dehydrogenase, which converts the product of glutaminase activity, glutamate, to α-ketoglutarate and ammonia through reducing NAD^+ to NADH. […]

488-D391K-GAC = biological target: T2, 488-D391K-GAC (Mus musculus, UniProt D3Z7P3, D391K); test: Real-time binding read-out by fluorescence quenching, dimer mutant; settings: 20 nM 488-labeled protein, 968 titration
T2 construct: plasmid (residues 72-603 for GAC, 72-674 for KGA); His-tag with thrombin cleavage site (N, cleaved yes); made in house; host or cells: pET23a vector
T2 sequence (D3Z7P3 72-603 isoform D3Z7P3-2 D391K): T1 sequence (D3Z7P3 72-603 isoform D3Z7P3-2 K316E/D391K/R459E) with E245K, E388R
Description: as §1, with “10” for “10 μL”
as §2

Dbl-transformed MEFs = settings: adapted from Wang et al. 2010; cited from earlier work

Which “binding to monomeric GAC (K316E-D391K-R459E) mutant, relative affinity” value [1] does the source give for `CN(C)c1ccc(C2Nc3ccc4ccccc4c3C3=C2C(=O)CC(C)(C)C3)cc1Br` (stereo not drawn) [compound 968] here?
The value was “highest affinity”.

What about the “binding to dimeric GAC (D391K) mutant” value (488-D391K-GAC) of the same compound?
The value was “capable of binding”.

What about the “inhibition of the ability of Dbl-transformed MEFs to form foci” value (Dbl-transformed MEFs) of the same compound?
The value was “dose dependent”.
